The record followed here is US20180312473A1, “PHENAZINE DERIVATIVES AS ANTIMICROBIAL AGENTS” (priority 2015, published 2018).

Converted amounts (≈) assume the structure as drawn. Where two headings read alike, the source gives them in different places.

Data set [1] relates to MRSE (S. epidermidis ATCC 35984) planktonic cells and biofilms. Description: Calgary Biofilm Device (CBD) assay, MBC/MBEC. The class given is cell-based, Staphylococcus epidermidis. Conditions: Table 8; for MBC: Staphylococcus epidermidis, read-out: MRSE 35984 MBC.
A further data set concerns human red blood cells. Description: Hemolysis assay with red blood cells. Conditions: 200 μM. The protocol:
The hemolysis activities of select compounds of the invention were determined. […] The washing was repeated three times with the buffer. In 96-well plate, test compounds were added to the buffer from DMSO stocks. […] The plate was then incubated for 1 hour at 37° C. After incubation, the plate was centrifuged for 5 minutes at 3,500 rpm. Then 80 μL of the supernatant was transferred to another 96-well plate, and the optical density (OD) was read at 405 nm. DMSO served as the negative control (0% hemolysis), while Triton X served as the positive control (100% hemolysis). The percent of hemolysis was calculated as (OD405 of the compound−OD405 of DMSO)/(OD405 of Triton X−OD405 of the buffer).
The washing was repeated three times with the buffer. In 96-well plate, test compounds were added to the buffer from DMSO stocks. […] The plate was then incubated for 1 hour at 37° C. After incubation, the plate was centrifuged for 5 minutes at 3,500 rpm. Then 80 μL of the supernatant was transferred to another 96-well plate and the optical density (OD) was read at 405 nm. DMSO served as our negative control (0% hemolysis) while Triton X served as our positive control (100% hemolysis). The percent of hemolysis was calculated as (OD405 of the test compound−OD405 DMSO)/(OD405 Triton X−OD405 buffer) from three independent experiments.

For data set [2], the system named is MRSA-2 planktonic cells and biofilms. The data set can be described thus: Calgary Biofilm Device (CBD) assay, MBC/MBEC. The class given is cell-based, Staphylococcus aureus. Conditions: Staphylococcus aureus, MRSA.
A further data set relates to S. epidermidis 12228. Description: MIC assay with Tiron or metal(II) cation co-treatment. Type of data set: cell-based, Staphylococcus epidermidis.
A further data set deals with MRSA-2. The data set is described as above. The class given is cell-based, Staphylococcus aureus.
A further data set relates to E. faecium 700221 (VRE). The description is as above. The class given is cell-based, Enterococcus faecium.
Data set [3] deals with Enterococcus faecium (ATCC 700221), VRE. The data set can be described thus: MIC assay (broth microdilution, CLSI). The class given is cell-based. Conditions: Table 7; b lowest concentration tested; read-out: MIC, VRE 700221. Background: Dilution methods test growth across graded concentrations, often in twofold steps.
In data set [4] the test system is MRSA-2 (methicillin-resistant Staphylococcus aureus clinical isolate). Description: MIC assay (broth microdilution, CLSI). The class given is cell-based. Conditions: Staphylococcus aureus, MRSA, Table 7; a midpoint of 2-fold range; b lowest concentration tested; read-out: MIC, MRSA-2.
In data set [5] the test system is Staphylococcus epidermidis (ATCC 12228). The data set can be described thus: MIC assay (broth microdilution, CLSI). Type of data set: cell-based. Conditions: Staphylococcus epidermidis, ATCC12228; Table 7; b lowest concentration tested; read-out: MIC, S. epidermidis 12228.
The test system of data set [6] is VRE (E. faecium ATCC 700221) planktonic cells and biofilms. Description: Calgary Biofilm Device (CBD) assay, MBC/MBEC. Type of data set: cell-based, Enterococcus faecium. The settings on record: Enterococcus; Table 8; c lowest concentration tested; read-out: VRE 700221 MBC.
In data set [7] the test system is M. tuberculosis H37Ra (ATCC 25177). Description: Mycobacterium tuberculosis MIC assay. Type of data set: cell-based. The settings on record: Mycobacterium tuberculosis. The protocol: The culture was then diluted with fresh medium until an OD600 of 0.01 was reached. […] The final DMSO concentration was maintained at 0.5%. […] Three rows were reserved for each compound. […] OD600 absorbance was recorded using SPECTRAMAX M5 (Molecular Devices). Data obtained from three independent experiments were analyzed using Excel.
The culture was then diluted with fresh medium until an OD600 of 0.01 was reached. […] The final DMSO concentration was maintained at 0.5%. […] Three rows were reserved for each compound. […] OD600 absorbance was recorded using SPECTRAMAX M5 (Molecular Devices). Data obtained from three independent experiments were analyzed using EXCEL.

Where [8] appears, read: Table 8, a/b 2-/4-fold range in independent experiments, read-out: MRSA-2 MBC.
[9] abbreviates: S. epidermidis 12228, + loss, − increase of activity.
[10] abbreviates: MRSA-2, + loss, − increase of activity.
Where [11] appears, read: E. faecium 700221, + loss, − increase of activity.

As for `N#CC(C#N)=NNc1cccc(Cl)c1` [CCCP, carbonyl cyanide m-chlorophenyl hydrazone, reference compound], the MBC in [1] came to 31.3 µM (≈ 6.4 µg/mL); in data set [2] (Table 5, a/b midpoint of 2-/4-fold range, read-out: MRSA-2 MBC), 31.3 µM (≈ 6.4 µg/mL); in data set [2] (setting [8]) it was 31.3 µM (≈ 6.4 µg/mL). The “% Hemolysis at 200 μM” value in the data set on human red blood cells (red blood cells) was 3.5%; in the data set with human red blood cells (Table 8, human red blood cells), 3.5%.

For the compound `O=C(O)c1cn(C2CC2)c2cc(N3CCNCC3)c(F)cc2c1=O` [Ciprofloxacin, ciprofloxacin, reference compound], in the data set on human red blood cells (1 h, 37 °C), the “% Hemolysis (200 μM)” value was 1.8%.

As a reminder, the MIC is the lowest concentration that inhibits growth of the organism. Turning to `Oc1cccc2cccnc12` [Compound 8-HQ, 8-hydroxyquinoline, reference compound], the MIC in the data set with S. epidermidis 12228 (S. epidermidis 12228, 1 mM Tiron, read-out: MIC with Tiron) was above 100 µM; in the data set on S. epidermidis 12228 (S. epidermidis 12228, no additive, read-out: MIC), 3.13 µM; in the data set on S. epidermidis 12228 (Staphylococcus epidermidis, 12228) it was 3.13 µM; with S. epidermidis 12228 (Staphylococcus epidermidis, 12228, read-out: MIC with Cu^2+), 3.13 µM; with S. epidermidis 12228 (Staphylococcus epidermidis, 12228, read-out: MIC with Tiron), above 100 µM; with MRSA-2 (MRSA-2, 1 mM Tiron, read-out: MIC with Tiron) it was above 100 µM. The MIC in the data set with MRSA-2 (MRSA-2, no additive (Table 9), read-out: MIC) was 6.25 µM; with MRSA-2 (Staphylococcus aureus, MRSA), 6.25 µM; in the data set with MRSA-2 (Staphylococcus aureus, MRSA, read-out: MIC with Cu^2+), 3.13 µM; with MRSA-2 (Staphylococcus aureus, MRSA, read-out: MIC with Fe^2+) it was 6.25 µM; in the data set on MRSA-2 (Staphylococcus aureus, MRSA, read-out: MIC with Tiron) it was above 100 µM; with E. faecium 700221 (VRE), 18.8 µM. Also, the MIC was 18.8 µM with E. faecium 700221 (VRE) (Enterococcus faecium, VRE); 18.8 µM in the data set on E. faecium 700221 (VRE) (Enterococcus faecium, VRE, read-out: MIC with Cu^2+); above 100 µM in the data set with E. faecium 700221 (VRE) (Enterococcus faecium, VRE, read-out: MIC with Tiron); above 100 µM in the data set on E. faecium 700221 (VRE) (read-out: MIC with Tiron). The “Fold Δ (Cu^2+)” value is “n.a. (insignificant changes in MIC values (≤2-fold changes))” with S. epidermidis 12228 (setting [9]), “n.a. (insignificant changes in MIC values (<2-fold changes))” in the data set on MRSA-2 (setting [10]) and “n.a. (insignificant changes in MIC values (≤2-fold changes))” with E. faecium 700221 (VRE) (setting [11]). The “Fold Δ (MIC with Tiron vs MIC)” value was “>+32” with S. epidermidis 12228 (setting [9]); “+16” in the data set with MRSA-2 (MRSA-2, + loss, − increase of antibacterial activity); “>+12” in the data set on E. faecium 700221 (VRE) (VRE 700221, + loss, − increase of activity). The “Fold Δ (Tiron)” value in the data set with S. epidermidis 12228 (setting [9]) is recorded as “>+32”; in the data set on MRSA-2 (setting [10]) it was “+16”; in the data set on E. faecium 700221 (VRE) (setting [11]), “>+12”. For the same compound, in the data set with MRSA-2 (MRSA-2), the “effect of tiron co-treatment on antibacterial activity” value was “complete loss of antibacterial activity”. In addition, the “Fold Δ (Fe^2+)” value in the data set with MRSA-2 (setting [10]) was “n.a. (insignificant changes in MIC values (<2-fold changes))”.

With `C=CCc1cc(Br)c2nc3ccccc3nc2c1O` [Compound 23, 2-Allyl-4-bromo-1-hydroxyphenazine], the MIC in data set [3], in data set [4] and in [5] was above 100 µM in each case.

Turning to `O=C(O)CN(CCN(CC(=O)O)CC(=O)O)CC(=O)O` [EDTA, ethylenediaminetetraacetic acid, reference compound], in data set [1], the MBC worked out at 1000 µM (≈ 292 µg/mL) and the “MRSE 35984 MBEC” value was above 2000 µM. For the same compound, the “% Hemolysis at 200 μM” value in the data set with human red blood cells (human, 1 h, pH 7.2) is given as 3.0%.

With `CC(=O)N[C@@H](CS)C(=O)O` [NAC, N-acetyl cysteine, reference compound], the MBC in data set [1] was above 2000 µM; in data set [6], above 2000 µM; in [2] (Table 4, read-out: MBC, MRSA-2), above 2000 µM; in data set [2] (setting [8]), above 2000 µM.

For the compound `CO[C@H]1/C=C/O[C@@]2(C)Oc3c(C)c(O)c4c(O)c(c(/C=N/N5CCN(C)CC5)c(O)c4c3C2=O)NC(=O)/C(C)=C\C=C\[C@H](C)[C@H](O)[C@@H](C)[C@@H](O)[C@@H](C)[C@H](OC(C)=O)[C@@H]1C` [Rifampin, rifampin, reference compound], the “% Hemolysis (200 μM)” value with human red blood cells (human, 1 h, pH 7.2) stood at 8.0%. In addition, the MIC in data set [5] is 0.1 µM (≈ 0.0823 µg/mL).

In the case of `[H]/N=C(/N)N[C@H]1[C@H](O)[C@@H](O)[C@H](O[C@@H]2O[C@@H](C)[C@](O)(C=O)[C@H]2O[C@@H]2O[C@@H](CO)[C@H](O)[C@@H](O)[C@@H]2NC)[C@@H](N/C(N)=N\[H])[C@@H]1O` [Streptomycin, streptomycin, reference compound], the MIC in data set [7] (168 h, read-out: Mtb MIC) was 1.32 µM (≈ 0.768 µg/mL); in data set [7] (Table 7, read-out: MIC, M. tuberculosis H37Ra) it was 1.32 µM (≈ 0.768 µg/mL).

Regarding `CN(C)[C@@H]1C(O)=C(C(N)=O)C(=O)[C@@]2(O)C(O)=C3C(=O)c4c(O)cccc4[C@@](C)(O)[C@H]3C[C@@H]12` [Tetracyc., tetracycline, reference compound], in the data set with MRSA-2 (setting [10]), the “Fold Δ (Cu^2+)” value is on record as “n.a. (insignificant changes in MIC values (<2-fold changes))”. Further, in the data set on MRSA-2 (setting [10]), the “Fold Δ (Fe^2+)” value is on record as “+16”. Also, the MIC in the data set on MRSA-2 (Staphylococcus aureus, MRSA-2, 200 μM copper(II), read-out: MIC with Cu^2+) stood at 1.56 µM; in the data set on MRSA-2 (Staphylococcus aureus, MRSA-2, 200 μM iron(II), read-out: MIC with Fe^2+), 18.8 µM; with MRSA-2 (Staphylococcus aureus, MRSA-2, no additive (Table 9), read-out: MIC), 1.17 µM.
